Results on three compounds are retold here after PMC5663708, “Novel Benzylidene Thiazolidinedione Derivatives as Partial PPARγ Agonists and their Antidiabetic Effects on Type 2 Diabetes” (Scientific Reports, 2017).

In data set [1] the test system is NIH/3T3 mouse embryonic fibroblast cells. Briefly: XTT cytotoxicity assay on NIH/3T3 cells. Conditions: for cell viability compared with Rosiglitazone: especially at 316 and 1000 μM. On the procedure:
XTT is reduced to soluble formazan by this enzyme and formazan is quantified and directly proportional to the number of viable cells. […] NIH/3T3 cells were seeded at 1 × 10^4 cells into each well of 96-well plates. […] The XTT assay (Xenometrix, Allschwil, Switzerland) was performed according to the manufacturer’s instructions, after 24 h incubation with the compounds. The absorbance was determined after 2 h incubation at 480 nm with a reference wavelength of 680 nm using a microplate reader (BioTek, USA). […] The stock solutions of the compounds were prepared in DMSO and further dilutions were made with fresh culture medium. The final DMSO concentration was under 0.1%. Rosiglitazone and Pioglitazone were used as positive controls. All data were obtained from 3 independent experiments in quadruplicates.

A short description of data set [2]: XTT in vitro hepatotoxicity assay on HepG2 cells. Type of data set: cell-based, human. Conditions: human, highest tested concentration (1000 μM), read-out: cell viability. The procedure: (§1) HepG2 cells are considered as a useful model to study in vitro xenobiotic metabolism and liver toxicity. In particular, HepG2 cells are able to activate and detoxify xenobiotics and, they are the reason why these cells are intensively used in toxicology[58],[59]. Hepatotoxicity was determined using the XTT assay.
(§2) The final DMSO concentration was set at <0.1%. Rosiglitazone and Pioglitazone were used as positive controls. IC50 values and cell viability % were calculated.
A general note: Tetrazolium assays rely on reduction of a dye to a coloured formazan, in cell work by metabolically active cells.

Data set [3] can be described thus: In vitro Caco-2 permeability. It counts as in vitro ADME. Conditions: human; for Papp A→B at 150 min, 2 µM / Papp B→A at 150 min, 2 µM: Caco-2, 2 µM, pH 6.5/7.4, n = 2; for Papp at 150 min, 2 µM: Caco-2, based on Papp,A-B, read-out: Permeability Rank. The procedure: (§3) The oral bioavailability of compounds in terms of Caco-2 and MDCK-II permeability and the P-glycoprotein (P-gp) efflux ratio were assessed. The in vitro intrinsic half-life (T1/2,int) and the apparent intrinsic clearance (CLint,app) of compounds were also measured after incubation with human liver microsomes at 37.5 °C[65]. […] Quantification was done by LC-MS/MS. P-gp substrate activity was assessed by the efflux ratio (the ratio of Papp in the B-to-A direction over that in the A-to-B direction). […] P-gp is an ATP-dependent transporter on the apical plasma membrane of enterocytes that functions to limit the entry of drugs into the cell.
In general terms: Caco-2 monolayers are a common model of the intestinal barrier.

The subject of data set [4] is P-gp. Briefly: In vitro Caco-2 permeability. Type of data set: in vitro ADME. Conditions: human; Caco-2, 2 µM, 150 min; read-out: Efflux Ratio (B > A/A > B). On the procedure: as §3
Data set [5] can be described thus: In vitro MDCK-II permeability. Conditions: dog; for Papp A→B at 150 min, 2 µM / Papp B→A at 150 min, 2 µM: pH 7.4/7.4, n = 2; for Papp at 150 min, 2 µM: based on Papp,A-B, read-out: Permeability Rank. Type of data set: in vitro ADME. On the procedure:
(§4) The oral bioavailability of compounds in terms of Caco-2 and MDCK-II permeability and the P-glycoprotein (P-gp) efflux ratio were assessed. […] Quantification was done by LC-MS/MS. P-gp substrate activity was assessed by the efflux ratio (the ratio of Papp in the B-to-A direction over that in the A-to-B direction). […] P-gp is an ATP-dependent transporter on the apical plasma membrane of enterocytes that functions to limit the entry of drugs into the cell.

For data set [6], the system named is HepG2 human hepatocellular liver carcinoma cell line. Description: XTT in vitro hepatotoxicity assay on HepG2 cells. Type of data set: cell-based. The settings on record: at 1000 μM. The procedure:
as §1, §2

Data set [7] relates to Caco-2 monolayers. Briefly: In vitro Caco-2 permeability. Type of data set: in vitro ADME. On the procedure: as §3
For data set [8], the system named is MDCK-II monolayers. Briefly: In vitro MDCK-II permeability. It counts as in vitro ADME. The procedure:
as §4

Where [9] appears, read: Caco-2, 2 µM, 150 min, pH 6.5/7.4, n = 2.
Setting [10] is: 2 µM, 150 min, pH 7.4/7.4, n = 2.

Each structure is given as a SMILES string.

For orientation: IC50 means the concentration at which inhibition is half-maximal. A low value points to higher potency. In general, viability refers to a read-out of living cells in per cent, often relative to untreated cells. What is called Papp A→B is how fast a substance crosses the layer from the apical side. Lower therefore signals poor permeation. What is called Papp B→A is the apparent permeability from the basolateral to the apical side of a cell layer. On to `CCN(CC)C(=O)CN1C(=O)S/C(=C\c2ccccc2)C1=O` [1i], for which the IC50 in data set [1] (Mus musculus, NIH3T3, 24 h) was more than 1000 µM. Moreover, in data set [1] (NIH/3T3 cells), the “cell viability compared with Rosiglitazone” value is given as “significantly higher viability than Rosiglitazone”. Further, in data set [2], the viability at 1000 µM was determined as 64 ± 3.93%. For the same compound, in data set [3], the Papp A→B at 150 min, 2 µM came out at 23 ×10⁻⁶ cm/s; the Papp B→A at 150 min, 2 µM was 51.2 ×10⁻⁶ cm/s; the Papp at 150 min, 2 µM was not below 5 ×10⁻⁶ cm/s. In data set [4], the efflux ratio at 150 min, 2 µM was 2.7. Also, in data set [5], the Papp A→B at 150 min, 2 µM is 16.3 ×10⁻⁶ cm/s; the Papp B→A at 150 min, 2 µM was 11.9 ×10⁻⁶ cm/s; the Papp at 150 min, 2 µM is not below 5 ×10⁻⁶ cm/s.
Compound `CCCCNC(=O)CN1C(=O)S/C(=C\c2ccc(Cl)cc2)C1=O` [3a] yielded an IC50 in data set [1] (Mus musculus, NIH3T3, 24 h) of 966 ± 10 µM. Further, the “cell viability compared with Rosiglitazone” value in data set [1] (NIH/3T3 cells) was “significantly higher viability than Rosiglitazone”. In data set [6], the “cell viability compared with Rosiglitazone” value is given as “did not show any significant difference”. In data set [3], the apparent permeability from apical to basolateral (Papp A→B) at 150 min, 2 µM is 1.6 ×10⁻⁶ cm/s; the basolateral-to-apical permeability (Papp B→A) at 150 min, 2 µM came to 19.3 ×10⁻⁶ cm/s; the Papp at 150 min, 2 µM is less than 5 ×10⁻⁶ cm/s. Also, in data set [4], the efflux ratio at 150 min, 2 µM came to 3.2. Besides, in data set [5], the Papp A→B at 150 min, 2 µM is 0.8 ×10⁻⁶ cm/s; the Papp B→A at 150 min, 2 µM amounted to 0.4 ×10⁻⁶ cm/s; the Papp at 150 min, 2 µM is less than 5 ×10⁻⁶ cm/s.
In data set [1] (NIH/3T3 cells, XTT, 24 h incubation), `CCCCNC(=O)CN1C(=O)S/C(=C\c2ccccc2)C1=O` [1a] displayed an IC50 of more than 1000 µM. For the same compound, the “cell viability compared with Rosiglitazone” value in data set [6] is “did not show any significant difference”. The “Avg Papp A to B” value in data set [7] (setting [9]) was 2.4 ×10⁻⁶ cm/s; in data set [8] (setting [10]) it was 1.8 ×10⁻⁶ cm/s. For the same compound, the “Avg Papp B to A” value in data set [7] (setting [9]) was found to be 14.3 ×10⁻⁶ cm/s; in data set [8] (setting [10]), 2.5 ×10⁻⁶ cm/s. Moreover, the “Permeability Rank” value in data set [7] (Caco-2, based on Papp,A-B) is “Low (Low, Papp,A-B < 5 × 10^−6 cm/sec)”; in data set [8] (based on Papp,A-B) it was “Low (Low, Papp,A-B < 5 × 10^−6 cm/sec)”.
